Assay results: ChEMBL document CHEMBL1156342, “Five new diprenylated flavonols from the leaves of Broussonetia kazinoki” (2001)
In brackets after ≈: the same amount, converted by molar mass.

Legend:
Type in all cases: functional
KB = assay: Cytotoxicity against human KB cells after 5 days by MTT assay; details: 120 h, read-out: ED50 (the source's name)
HCT-8 = assay: Cytotoxicity against human HCT8 cells after 5 days by MTT assay; details: HCT-8, 120 h, read-out: ED50 (the source's name)
A549 = assay: Cytotoxicity against human A549 cells after 5 days by MTT assay; details: A549, 120 h, read-out: ED50 (the source's name)

| SMILES | EC50 (KB) | EC50 (HCT-8) | EC50 (A549) |
| --- | --- | --- | --- |
| CC(C)=CCc1cc(-c2oc3c(CC=C(C)C)c(O)cc(O)c3c(=O)c2O)cc(O)c1O [BROUSSONOL D] | 4.15 µg/mL (≈ 9.46 µM) | > 10 µg/mL | > 10 µg/mL |
| CC(C)=CCc1cc(-c2oc3cc(O)c(CC=C(C)C)c(O)c3c(=O)c2O)cc(O)c1O [BROUSSONOL E] | > 10 µg/mL | > 10 µg/mL | > 10 µg/mL |
| COc1cc(O)ccc1CCCc1cc(O)c(O)c(CC=C(C)C)c1CC=C(C)C [KAZINOL J] | > 10 µg/mL | > 10 µg/mL | > 10 µg/mL |
| CC1Oc2cc(O)c3c(=O)c(O)c(-c4cc(O)c5c(c4)C=CC(C)(C)O5)oc3c2C1(C)C (stereo unspecified) [BROUSSONOL B] | > 10 µg/mL | 8.8 µg/mL (≈ 20.2 µM) | 5.52 µg/mL (≈ 12.6 µM) |
| CC(C)=CCc1cc(-c2oc3c4c(cc(O)c3c(=O)c2O)OC(C)C4(C)C)cc(O)c1O (stereo unspecified) [BROUSSONOL C] | > 10 µg/mL | 9.63 µg/mL (≈ 22 µM) | 7.77 µg/mL (≈ 17.7 µM) |
| C=CC(C)(C)c1c(O)cc(O)c2c(=O)c(O)c(-c3cc(O)c4c(c3)C=CC(C)(C)O4)oc12 [BROUSSONOL A] | > 10 µg/mL | 9.1 µg/mL (≈ 20.8 µM) | 8.74 µg/mL (≈ 20 µM) |
| CC(C)=CCc1c(CCCc2ccc(O)cc2O)cc(O)c(O)c1CC=C(C)C [KAZINOL F] | > 10 µg/mL | > 10 µg/mL | > 10 µg/mL |
